Assay results published in patent publication EP4324461A1, “(E)-N-CINAMOYLAMINOALKANOLES WITH MELANOGENESIS INHIBITORY ACTIVITY” (UNIWERSYTET JAGIELLONSKI, priority 2022, dated 2024).
Values joined by “and” are separate entries in the source; they are usually repeats but may differ in a detail not shown here. Identical values can stand only once. Like-named read-outs stand apart in the source and are kept apart here.

Experiments:
S. typhimurium TA98 = assay: Ames microplate test, TA98; assay type: cell-based, Salmonella typhimurium; conditions: positive control (PC), 0.5 µg/mL, +S9;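 further: reference level is the mean solvent-control yellow wells plus SD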
Protocol: (§1) Bacteria were grown overnight in growth medium.
(§2) Table 9. Ames microplate test results.

S. typhimurium TA100 = assay: Ames microplate test, TA100; assay type: cell-based, Salmonella typhimurium; conditions: positive control (PC), 125 µg/mL, +S9;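 further: reference level is the mean solvent-control yellow wells plus SD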
Protocol: as §1, §2

[1] = Lipophilicity coefficient RM0 by reversed phase thin layer chromatography; assay type: physicochemical; conditions: RP-18 TLC, methanol / 100 mM phosphate buffer pH = 7.4
Protocol: Confirmation of the identity and purity of the obtained compounds consisted in the registration and interpretation of ^1H NMR and ^13C NMR spectra (the spectra were recorded using an ECZR 500 MHz (JEOL) series FT-NMR spectrophotometer), as well as the registration and interpretation of LC-MS spectra (the spectra were recorded using Acquita UPLC system (Waters) coupled with a Waters TQD mass spectrometer). The melting point was measured using the open capillary method in the IA9300 device (Electrothermal). The lipophilicity coefficient RM0 was determined by reversed phase thin layer chromatography. In the study, aluminum plates 20x20 cm covered with modified silica gel RP-18 F254 (Merck) were used as the solid phase. The mobile phase consisted of solutions of methanol and 100 mM phosphate buffer (pH = 7.4), characterized by a variable methanol content ranging from 95 to 65% (v/v). The tested compounds were dissolved in methanol to obtain solutions with a concentration of 1 mg/mL. Then, 5 µL of the solutions prepared in this way were transferred to the starting line on aluminum plates, which were then placed in chromatographic chambers previously saturated with mobile phase vapors for at least 1 hour. All activities, including the development of chromatograms, were carried out at room temperature. After developing the chromatograms to approximately 1-2 cm from the end of the plate, the plates were dried and then the distance traveled by the tested compounds was visualized under UV light (λ = 254 nm). The experiment was performed in duplicate for the specified conditions. For all samples, Rf was calculated according to the formula Rf = a/b, where a - the distance traveled by the tested compound, b - the distance traveled by the mobile phase. Then, the RM parameter was calculated for all samples according to the formula RM = log(1/Rf - 1), obtaining a linear relationship between the RM values and the methanol concentration in the mobile phase. The logP coefficient was also calculated using the following computer programs: ACD/ChemSketch 2020.1.2 and ChemDraw 20.0.0.41. Table 2. The physicochemical data of the compounds are presented below

tyrosinase from mushroom = assay: Inhibition of commercial mushroom tyrosinase (L-DOPA or L-tyrosine substrate); assay type: biochemical
Protocol: The following substrates were used for the enzymatic reaction: L-tyrosine and L-3,4-dihyroxyphenylalanine (L-DOPA). Both substrates were used in independent experiments. According to the literature, the use of L-DOPA enables the assessment of tyrosinase diphenolase activity, and L-tyrosine - the tyrosinase monophenolase activity. The determinations were performed in 96-well plates, in each well there was placed: 170 µL or 127.5 µL of 50 mM phosphate buffer (pH = 6.8) with tyrosinase (1U/well or 3U/well) and 10 µL of a solution of the tested compound in DMSO (the final concentration in the well was 500 µM, 250 µM or 125 µM). The negative control used 10 µL of pure solvent (DMSO). To initiate the reaction, an appropriate substrate was added: L-tyrosine (62.5 µL of solution in phosphate buffer) or L-DOPA (20 µL of solution in phosphate buffer). After a 25-minute incubation, the absorbance was measured at 475 nm using a microplate reader. The percentage of inhibition of tyrosinase activity was calculated using the formula: [(AC -AT)/AC] × 100, where AC - is the absorbance of the negative control, AT - is the absorbance of the sample containing the tested compound.

[2] = test system: B16-F10 murine melanoma cell line; assay: Cytotoxicity in B16-F10 cells (MTT); assay type: cell-based; conditions: 48 h
Protocol: In order to determine safe doses of compounds for testing the inhibition of melanogenesis in a murine melanoma cell line, cytotoxicity tests were performed. Cytotoxicity was determined by the colorimetric method using MTT ([3-(4,5-dimethyl-2-thiazolyl)-2,5-diphenyl-2H-tetrazolium bromide, Sigma M5655). For this purpose, cells were transferred to 96-well plates in an amount of 5000/well. After 24 h of culture in an incubator in F 10-Ham medium with 1% FBS, the tested compounds at various concentrations were added to the wells together with fresh medium. DMSO was added to the medium in a negative control. The MTT test was performed after further culture for 48 h. Then the medium was removed and the formed formazan crystals were dissolved in DMSO. The absorbance was measured at 570 nm in a plate reader and the result was compared to the control (DMSO), which was 100%. The percentage of viability was calculated using the formula: [AT/AC^∗100], where AT is the absorbance of the test sample, AC - absorbance of the control sample. Table 3. Results of inhibiting the activity of monophenolase […] tyrosinase and cytotoxicity testing in B16F10 cells for the described compounds.

[3] = L-DOPA, read-out: Tyrosinase inhibition with L-DOPA, IC50
[4] = L-tyrosine, read-out: Tyrosinase inhibition with L-tyrosine, IC50

SMILES | Increase in the number of yellow wells compared to the reference level (S. typhimurium TA98) | Increase in the number of yellow wells compared to the reference level (S. typhimurium TA100) | RM0 [1] | Tyrosinase inhibition with L-DOPA [%] (tyrosinase from mushroom; L-DOPA) | IC50 (tyrosinase from mushroom; [3]) [µM] | Tyrosinase inhibition with L-tyrosine [%] (tyrosinase from mushroom; L-tyrosine) | IC50 (tyrosinase from mushroom; [4]) [µM] | Cytotoxicity study in B16F10 cells % viability ([2]; 150 µM) [%] | Cytotoxicity study in B16F10 cells % viability ([2]; 200 µM) [%] | Cytotoxicity study in B16F10 cells % viability ([2]; 250 µM) [%] | Tyrosinase inhibition with L-DOPA [%] (tyrosinase from mushroom; L-DOPA, concentration not given) | Cytotoxicity study in B16F10 cells % viability ([2]; 12.5 µM) [%] | Cytotoxicity study in B16F10 cells % viability ([2]; 25 µM) [%] | Cytotoxicity study in B16F10 cells % viability ([2]; 50 µM) [%]
Nc1ccc2cc3ccccc3cc2c1 [Compound 2-AA, 2-aminoanthracene, reference compound] | 24.00 and 15.03 | 4.00 |  |  |  |  |  |  |  |  |  |  |  | 
CCC(CO)NC(=O)/C=C/c1ccc(Cl)cc1 (stereo not drawn) [Compound A-01, (2E)-3-(4-chlorophenyl)-N-(1-hydroxybutan-2-yl)prop-2-enamide] |  |  | 2.43 | 43.99±2.60% (500 µM) | 734 | 61.80±0.40% (500 µM) | 284 | 73.6 | 93.2 | 85.4 |  |  |  | 
O=C(/C=C/c1ccccc1)NCCCCO [Compound A-43, (2E)-N-(4-hydroxybutyl)-3-phenylprop-2-enamide] |  |  | 1.60 | 34.55±4.18% (500 µM) | 1560 | 35.50±1.37% (500 µM) | 1030 | 108.9 | 105.7 | 103.2 |  |  |  | 
CCC(O)CNC(=O)/C=C/c1ccc(C)cc1 (stereo not drawn) [Compound A-63, (2E)-N-(2-hydroxybutyl)-3-(4-methylphenyl)prop-2-enamide] |  |  | 2.39 | 21.19±1.26% (500 µM) |  | 30.22±10.22% (500 µM) |  | 90.2 | 87.3 | 87.4 |  |  |  | 
Cc1ccc(/C=C/C(=O)NC(C)CO)cc1 (stereo not drawn) [Compound A-69, (2E)-N-(1-hydroxypropan-2-yl)-3-(4-methylphenyl)prop-2-enamide] |  |  | 2.17 | 22.96±6.64% (500 µM) |  | 4.40±7.15% (500 µM) |  | 96.6 | 101.3 | 97.5 |  |  |  | 
O=C(/C=C/c1ccc(Cl)cc1)N1CCC(O)CC1 [Compound A-99, (2E)-3-(4-chlorophenyl)-1-(4-hydroxypiperidin-1-yl)prop-2-en-1-one] |  |  | 2.27 |  | 450 | 75.14±1.60% (500 µM) | 177 | 109.8 | 102.6 | 96.6 | 54.87±1.47 |  |  | 
CC(C)C(CO)NC(=O)/C=C/c1ccc(Cl)cc1 (stereo not drawn) [Compound A-106, (2E)-3-(4-chlorophenyl)-N-(1-hydroxy-3-methylbutan-2-yl)prop-2-enamide] |  |  | 2.76 | 41.17±0.81% (500 µM) | 906 | 57.62±2.11% (500 µM) | 405 | 85.9 | 88.1 | 72.6 |  |  |  | 
CCC(CO)NC(=O)/C=C/c1ccc(Cl)cc1Cl (stereo not drawn) [H-285/20, (2E)-3-(2,4-dichlorophenyl)-N-(1-hydroxybutan-2-yl)prop-2-enamide] |  |  | 3.08 | 0.21±5.64% (500 µM) |  | 14.56±1.63% (500 µM) |  | 84.2 | 74.8 | 24.6 |  |  |  | 
O=C(/C=C/c1ccc(Cl)cc1Cl)NCCCO [H-296/20, (2E)-3-(2,4-dichlorophenyl)-N-(3-hydroxypropyl)prop-2-enamide] |  |  | 2.11 | 18.63±1.67% (500 µM) |  | 17.87±7.36% (500 µM) |  | 67.0 | 57.0 | 38.3 |  |  |  | 
O=C(/C=C/c1ccc(Cl)cc1Cl)NCCCCCO [H-297/20, (2E)-3-(2,4-dichlorophenyl)-N-(5-hydroxypentyl)prop-2-enamide] |  |  | 3.08 | 20.53±2.84% (500 µM) |  | 19.09±2.53% (500 µM) |  | 102.3 | 73.6 | 88.5 |  |  |  | 
O=C(/C=C/c1ccc(Cl)cc1Cl)NCCCCO [H-298/20, (2E)-3-(2,4-dichlorophenyl)-N-(4-hydroxybutyl)prop-2-enamide] |  |  | 2.78 | 11.16±2.78 (500 µM) % |  | 20±2.96% (500 µM) |  | 46.5 | 40.6 | 37.4 |  |  |  | 
O=C(/C=C/c1ccc(Cl)cc1Cl)N1CCC(O)CC1 [H-310/20, (2E)-3-(2,4-dichlorophenyl)-1-(4-hydroxypiperidin-1-yl)prop-2-en-1-one] |  |  | 2.80 | 7.23±0.81% (500 µM) |  | 19.24±3.44% (500 µM) |  | 89.5 | 100.4 | 93.0 |  |  |  | 
CCC(O)CNC(=O)/C=C/c1ccc(Cl)cc1Cl (stereo not drawn) [H-320/21, (2E)-3-(2,4-dichlorophenyl)-N-(2-hydroxybutyl)prop-2-enamide] |  |  | 3.08 | 5.8±3.04% (500 µM) |  | 24.43±8.05% (500 µM) |  | 101.7 | 90.8 | 33.9 |  |  |  | 
O=C(/C=C/c1ccc(Cl)cc1)NCCCCO [H-331/21, (2E)-3-(4-chlorophenyl)-N-(4-hydroxybutyl)prop-2-enamide] |  |  | 2.14 | 64.31±0.21% (500 µM) | 153 | 82.50±0.87% (500 µM) | 103 | 32.7 | 51.9 | 52.7 |  | 49.0 | 47.8 | 54.2
CCC(CO)NC(=O)/C=C/c1ccc(C)cc1 (stereo not drawn) [H-409/21, (2E)-N-(1-hydroxybutan-2-yl)-3-(4-methylphenyl)prop-2-enamide] |  |  | 2.49 | 21.81±2.31% (500 µM) |  | 15.31±8.27% (500 µM) |  | 83.2 | 95.3 | 103.4 |  |  |  | 
